Laboratory results from patent US11642335B2, “Chemical synthesis of clopidogrel active metabolites and disulfide conjugate prodrugs” (Board of Regents, The University of Texas System, priority 2019, dated 2023).
Entries after “also recorded” stand apart in the source; their conditions may differ.

Legend:
[1] = patients treated with CPG; cited from earlier work
P2Y12R = P2Y12R (Homo sapiens, UniProt Q9H244); details: biosynthesized H2, relative to H4; cited from earlier work
[2] = tested on: FeCl3 carotid artery injury-induced thrombosis; assay: FeCl3 carotid artery injury-induced thrombosis mouse model (in vivo antiplatelet test); details: for occlusion time of thrombosis: tail vein administration of 1 mg/kg, compared to vehicle (negative control) and CPG (positive control), FIG. 14, 1 mg/kg
Description: Referring now to FIGS. 14-18, In vivo antiplatelet test of synthetic H3 and H4 in a FeCl3 carotid artery injury-induced thrombosis mouse model.

antiplatelet activity = details: cited from earlier work

Sequence of P2Y12R (Q9H244 whole entry): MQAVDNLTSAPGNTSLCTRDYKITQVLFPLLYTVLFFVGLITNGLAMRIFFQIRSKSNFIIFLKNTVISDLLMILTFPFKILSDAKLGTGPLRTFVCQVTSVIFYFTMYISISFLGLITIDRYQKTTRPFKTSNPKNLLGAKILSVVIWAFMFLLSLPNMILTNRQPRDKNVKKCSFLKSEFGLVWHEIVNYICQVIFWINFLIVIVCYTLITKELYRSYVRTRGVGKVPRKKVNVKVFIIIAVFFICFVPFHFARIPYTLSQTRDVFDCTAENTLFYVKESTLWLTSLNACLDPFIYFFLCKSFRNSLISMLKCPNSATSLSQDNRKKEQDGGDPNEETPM

| Structure (SMILES) | detection as circulating metabolite in patients' plasma [1] | potency against P2Y12R in vitro (P2Y12R) | occlusion time of thrombosis [2] | stereospecific potency in vivo ([2]; synthetic metabolite, mice) | activity in in vitro pharmacological studies (antiplatelet) (antiplatelet activity) |
| --- | --- | --- | --- | --- | --- |
| COC(=O)[C@H](c1ccccc1Cl)N1CC[C@@H](S)/C(=C\C(=O)O)C1 [H2] | not detected | similarly potent as H4 | – | – | – |
| COC(=O)[C@H](c1ccccc1Cl)N1CC[C@@H](S)/C(=C\C(=O)O)C1 [H3] | detected as circulating metabolites | – | ineffective | – | – |
| COC(=O)[C@H](c1ccccc1Cl)N1CC[C@@H](S)/C(=C\C(=O)O)C1 [H4] | detected as circulating metabolites | – | significantly prolong the occlusion time of thrombosis | stereospecific potency in mice; also recorded: stereospecific potency in vivo | active |
